# Experimental data: patent US10294212B2 (CURADEV PHARMA PRIVATE LTD., priority 2013, dated 2019)
# Structures can show the parent of a compound that is named as a salt.
# Key:
# [1] = biological target: Human indoleamine 2,3-dioxygenase1 (hIDO1) (Homo sapiens (Human), UniProt P14902); assay: In-vitro IDO1 enzyme assay (conversion of L-tryptophan to KYN); format: biochemical; settings: read-out: IC50 (IDO1) Enz
# Outline: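 Kynurenine formation quantified by HPLC absorbance at 360 nm or LC/MS/MS after TCA quench and 15 min at 65 °C. Reaction: 10 nM N-His hIDO1, 30 μM tryptophan, ascorbate/methylene blue/catalase, pH 6.5 phosphate buffer, 37 °C for 30 min. Inhibition relative to 1% DMSO vehicle, fitted to IC50.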
# IDO1 in HeLa cells = IDO1 in HeLa cells (Homo sapiens (Human), UniProt P14902); assay: HeLa cell based IDO1 assay (IFNγ-induced, KYN in supernatant)
# Sequence of IDO1 in HeLa cells (P14902 whole entry): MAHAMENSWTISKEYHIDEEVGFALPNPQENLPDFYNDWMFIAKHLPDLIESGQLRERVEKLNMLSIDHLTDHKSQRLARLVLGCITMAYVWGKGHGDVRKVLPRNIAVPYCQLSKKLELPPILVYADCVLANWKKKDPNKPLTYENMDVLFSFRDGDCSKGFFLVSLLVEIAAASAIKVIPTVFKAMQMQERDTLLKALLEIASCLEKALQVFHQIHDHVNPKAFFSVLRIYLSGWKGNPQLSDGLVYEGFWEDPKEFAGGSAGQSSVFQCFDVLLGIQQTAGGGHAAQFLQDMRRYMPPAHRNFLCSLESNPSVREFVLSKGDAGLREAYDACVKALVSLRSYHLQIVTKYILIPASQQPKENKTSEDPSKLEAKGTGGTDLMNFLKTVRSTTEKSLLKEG
# Protocol: HeLa cells were obtained from ATCC and maintained in DMEM supplemented with sodium bicarbonate (2.1 g/L), HEPES (4.1 g/L), L-glutamine (2 mM), non-essential amino acid (84 mg/L) and fetal bovine serum (10% FBS) and maintained at 95% humidity and 5% CO2 in a 37° C. incubator. Unless otherwise stated, all materials were procured from Sigma. Upon incubation with gamma-interferon (IFNγ ), HeLa cells express IDO1, which catalyzes the formation of N-formyl kynurenine from tryptophan present in growth medium. The assay was performed as follows:
# Cells were plated in medium (300 μL) at a density of 0.1 million per well of a 48 well plate and hIDO1 was induced by overnight treatment with IFNγ (50 ng/mL) (Peprotech, USA). The following day, cells were washed to remove IFNγ and were incubated with specific concentrations of test compounds (typically 10 μM to 1 nM, final volume 300 μL) in Hanks Balanced Salt Solution (HBSS) containing 80 μM L-tryptophan. Following incubation, supernatant (150 μL) was transferred to a 96 well plate into which 30%TCA (304) was added and the contents further incubated at 65° C. for 15 min to fully convert N-formylkynurenine to kynurenine. The reaction mixture was then centrifuged to remove sediments and the KYN in the supernatant was estimated by UV-visible absorption spectroscopy at 360 nm using a Waters HPLC system fitted with a C-18 column. (Xiangdong Liu et al. Blood 2010, Vol-117, 3520-30; Sono described above).
# Percent inhibition at each concentration of test compounds was determined by estimating the decrease in KYN with reference to the reaction control with 1% DMSO vehicle. Data were analyzed using nonlinear regression to generate IC50 values using Graph Pad Prism® 5.
# [2] = biological target: Human TDO (hTDO)-transfected CHO-K1 cells (Homo sapiens (Human), UniProt P48775); assay: CHO-K1 cell based TDO assay; settings: hTDO cellular assay
# Sequence of Human TDO (hTDO)-transfected CHO-K1 cells (P48775 whole entry): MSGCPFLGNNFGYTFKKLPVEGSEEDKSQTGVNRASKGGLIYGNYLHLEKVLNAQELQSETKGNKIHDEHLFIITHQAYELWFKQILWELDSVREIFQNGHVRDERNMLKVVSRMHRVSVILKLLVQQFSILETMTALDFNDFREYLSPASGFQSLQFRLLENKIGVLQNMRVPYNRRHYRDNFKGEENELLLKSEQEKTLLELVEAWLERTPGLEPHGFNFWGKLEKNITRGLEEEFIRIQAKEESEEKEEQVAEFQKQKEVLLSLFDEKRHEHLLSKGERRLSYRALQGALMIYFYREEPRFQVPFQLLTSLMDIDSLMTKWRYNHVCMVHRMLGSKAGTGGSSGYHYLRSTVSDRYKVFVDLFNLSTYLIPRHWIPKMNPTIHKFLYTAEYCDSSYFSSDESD
# Outline: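 Kynurenine output was read by LC/MS/MS after TCA precipitation and 15 min at 65° C. Before that, CHO-K1 cells stably carrying human TDO2 were incubated 2 h with compounds (typically 31 μM to 10 nM) and 80 μM L-tryptophan in HBSS. Decrease versus DMSO vehicle gave percent inhibition, then IC50.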
# Sequence of Human indoleamine 2,3-dioxygenase1 (hIDO1) (P14902 whole entry): as the sequence (P14902 whole entry) above
IC50 [1] [nM],IC50 (IDO1 in HeLa cells) [nM],IC50 [2] [nM],Structure (SMILES)
< 200,< 200,500 to 2000,"CCc1cc(-c2nccc3c(Nc4ccc(F)c(Cl)c4)c(N)oc23)ccn1 [Compound 262, N^3-(3-Chloro-4-fluorophenyl)-7-(2-ethylpyridin-4-yl)furo[2,3-c]pyridine-2,3-diamine]"
< 200,< 200,> 2000,"COc1cc2c(Nc3ccc(F)c(Cl)c3)c(N)oc2c(Br)n1 [Compound 172, 7-Bromo-N^3-(3-chloro-4-fluorophenyl)-5-methoxyfuro[2,3-c]pyridine-2,3-diamine]"
< 200,< 200,500 to 2000,"Cc1cc(-c2nccc3c(Nc4cccc(Cl)c4)c(N)oc23)ccn1 [Compound 238, N^3-(3-Chlorophenyl)-7-(2-methylpyridin-4-yl)furo[2,3-c]pyridine-2,3-diamine]"
< 200,< 200,< 500,"Nc1oc2cnc(F)cc2c1Nc1ccc(F)c(Cl)c1 [Compound 181, N^3-(3-Chloro-4-fluorophenyl)-5-fluorofuro[2,3-c]pyridine-2,3-diamine]"
< 200,< 200,< 500,"Cc1cc(-c2nccc3c(Nc4ccc(F)c(F)c4)c(N)oc23)ccn1 [Compound 198, N^3-(3,4-Difluorophenyl)-7-(2-methylpyridin-4-yl)furo[2,3-c]pyridine-2,3-diamine]"
< 200,< 200,> 2000,"Nc1oc2c(-c3cccc(Cl)c3)nccc2c1Nc1ccc(F)c(Cl)c1 [Compound 100, N^3-(3-Chloro-4-fluorophenyl)-7-(3-chlorophenyl)furo[2,3-c]pyridine-2,3-diamine]"
< 200,< 200,< 500,"Nc1oc2c(F)nccc2c1Nc1ccc(F)c(Cl)c1 [Compound 176, N^3-(3-chloro-4-fluorophenyl)-7-fluorofuro[2,3-c]pyridine-2,3-diamine]"
< 200,< 200,> 2000,"CCCCNC(=O)c1cc(-c2nccc3c(Nc4ccc(F)c(Cl)c4)c(N)oc23)ccn1 [Compound 250, 4-(2-Amino-3-((3-chloro-4-fluorophenyl)amino)furo[2,3-c]pyridin-7-yl)-N-butylpicolinamide]"
< 200,< 200,> 2000,"CNC(=O)c1cc(-c2nccc3c(Nc4cccc(C(F)(F)F)c4)c(N)oc23)ccn1 [Compound 226, 4-(2-Amino-3-((3-(trifluoromethyl)phenyl)amino)furo[2,3-c]pyridin-7-yl)-N-methylpicolinamide]"
< 200,< 200,500 to 2000,"COC(=O)c1ccc(-c2nccc3c(Nc4ccc(F)c(Cl)c4)c(N)oc23)cc1 [Compound 152, Methyl 4-(2-amino-3-((3-chloro-4-fluorophenyl)amino)furo[2,3-c]pyridin-7-yl)benzoate]"
< 200,< 200,< 500,"N#Cc1nccc2c(Nc3ccc(F)c(Cl)c3)c(N)oc12 [Compound 103, 2-Amino-3-((3-chloro-4-fluorophenyl)amino)furo[2,3-c]pyridine-7-carbonitrile]"
< 200,< 200,500 to 2000,"Nc1oc2cnccc2c1Nc1cccc(C(F)(F)F)c1 [Compound 26, N^3-(3-(Trifluoromethyl)phenyl)furo[2,3-c]pyridine-2,3-diamine]"
< 200,200 to 1000,500 to 2000,"Nc1sc2c(Br)cccc2c1Nc1ccc(F)c(Cl)c1 [Compound 210, 7-Bromo-N^3-(3-chloro-4-fluorophenyl)benzo[b]thiophene-2,3-diamine hydrochloride]"
< 200,< 200,> 2000,"CCCc1nccc2c(Nc3cccc(C(F)(F)F)c3)c(N)oc12 [Compound 78, 7-Propyl-N^3-(3-(trifluoromethyl)phenyl)furo[2,3-c]pyridine-2,3-diamine]"
< 200,< 200,500 to 2000,"C#Cc1cccc(Nc2c(N)oc3c(CC)nccc23)c1 [Compound 96, 7-Ethyl-N^3-(3-ethynylphenyl)furo[2,3-c]pyridine-2,3-diamine]"
< 200,< 200,500 to 2000,"N#Cc1ccc(-c2nccc3c(Nc4ccc(F)c(Cl)c4)c(N)oc23)cc1 [Compound 149, 4-(2-Amino-3-((3-chloro-4-fluorophenyl)amino)furo[2,3-c]pyridin-7-yl)benzonitrile]"
< 200,< 200,500 to 2000,"Nc1oc2cc([N+](=O)[O-])ccc2c1Nc1ccc(F)c(Cl)c1 [Compound 179, N^3-(3-chloro-4-fluorophenyl)-6-nitrobenzofuran-2,3-diamine]"
< 200,< 200,> 2000,"Nc1oc2c(-c3cccc(C(F)(F)F)c3)nccc2c1Nc1ccc(F)c(Cl)c1 [Compound 199, N^3-(3-Chloro-4-fluorophenyl)-7-(3-(trifluoromethyl)phenyl)furo[2,3-c]pyridine-2,3-diamine]"
< 200,< 200,500 to 2000,"CNC(=O)c1cc(-c2nccc3c(Nc4cccc(Cl)c4)c(N)oc23)ccn1 [Compound 225, 4-(2-Amino-3-((3-chlorophenyl)amino)furo[2,3-c]pyridin-7-yl)-N-methylpicolinamide]"
< 200,< 200,> 2000,"CCc1nccc2c(Nc3ccc(F)c(C(F)(F)F)c3)c(N)oc12 [Compound 74, 7-Ethyl-N^3-(4-fluoro-3-(trifluoromethyl)phenyl)furo[2,3-c]pyridine-2,3-diamine]"
< 200,< 200,> 2000,"Cc1cc(-c2nccc3c(Nc4ccc(F)c(Cl)c4)c(N)oc23)cc(C)n1 [Compound 164, N^3-(3-Chloro-4-fluorophenyl)-7-(2,6-dimethylpyridin-4-yl)furo[2,3-c]pyridine-2,3-diamine]"

Structure (SMILES),IC50 [1] [nM],IC50 (IDO1 in HeLa cells) [nM],IC50 [2] [nM]
"Nc1oc2cnccc2c1Nc1ccc(F)cc1 [Compound 5, N^3-(4-Fluorophenyl)furo[2,3-c]pyridine-2,3-diamine]",200 to 1000,< 200,500 to 2000
"C#Cc1cccc(Nc2c(N)oc3cnccc23)c1 [Compound 68, N^3-(3-Ethynylphenyl)furo[2,3-c]pyridine-2,3-diamine]",200 to 1000,< 200,500 to 2000
"Cc1ccc2sc(N)c(Nc3ccc(F)c(F)c3)c2c1 [Compound 215, N^3-(3,4-difluorophenyl)-5-methylbenzo[b]thiophene-2,3-diamine]",200 to 1000,< 200,> 2000
"N#Cc1nccc2c(Nc3ccc(F)c(F)c3)c(N)oc12 [Compound 185, 2-Amino-3-((3,4-difluorophenyl)amino)furo[2,3-c]pyridine-7-carbonitrile]",200 to 1000,< 200,< 500
"Nc1sc2ccc(Cl)cc2c1Nc1ccc(F)c(C(F)(F)F)c1 [Compound 132, 5-Chloro-N^3-(4-fluoro-3-(trifluoromethyl)phenyl)benzo[b]thiophene-2,3-diamine]",200 to 1000,200 to 1000,> 2000
"O=C(Nc1oc2cnccc2c1Nc1ccc(F)c(Cl)c1)OCc1ccccc1 [Compound 139, Benzyl (3-((3-chloro-4-fluorophenyl)amino)furo[2,3-c]pyridin-2-yl)carbamate]",> 1000,> 1000,500 to 2000
"CC(C)c1cccc(Nc2c(N)oc3cnccc23)c1 [Compound 43, N^3-(3-Isopropylphenyl)furo[2,3-c]pyridine-2,3-diamine]",200 to 1000,< 200,> 2000
"Nc1oc2c(N(c3ccccc3)c3ccccc3)nccc2c1Nc1ccc(F)c(Cl)c1 [Compound 200, N^3-(3-Chloro-4-fluorophenyl)-N^7,N^7-diphenylfuro[2,3-c]pyridine-2,3,7-triamine]",200 to 1000,< 200,> 2000
"CCCCOc1cc2c(Nc3ccc(F)c(Cl)c3)c(N)oc2c(-c2ccccc2)n1 [Compound 102, 5-Butoxy-N^3-(3-chloro-4-fluorophenyl)-7-phenylfuro[2,3-c]pyridine-2,3-diamine]",> 1000,> 1000,> 2000
